Test results: patent publication US20170198006A1, “PRMT5 INHIBITORS AND USES THEREOF” (Epizyme, Inc., priority 2014, published 2017)

Experiments:
PRMT5/MEP50 = molecular target: T1, PRMT5/MEP50 (Homo sapiens, UniProt O14744); experiment: PRMT5 Biochemical Assay (PRMT5/MEP50 enzyme assay on histone H4 peptide substrate, 3H-SAM Flashplate); settings: PRMT5 biochemical assay; read-out: Biochemical IC50
T1 construct: Flag-PRMT5; made in house; host or cells: Spodoptera frugiperda (SF9), baculovirus
How it was run: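 Sf9-expressed Flag-PRMT5/6His-MEP50 preincubated with compound 30 min at 25 °C, then methylation of biotinylated H4 1-15 peptide started with ³H-SAM in 20 mM Bicine pH 7.6, 1 mM TCEP, 0.005% BSG, 0.002% Tween20.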

Z-138 cells = experiment: Z-138 Proliferation Assay (Cell Titer Glo, 5 days); assay type: cell-based; settings: Homo sapiens, 120 h
Description: Z-138 Proliferation Assay
Z-138 suspension cells were purchased from ATCC (American Type Culture Collection, Manassas, Va.). RPMI/Glutamax medium, penicillin-streptomycin, heat inactivated fetal bovine serum were purchased from Life Technologies, Grand Island, N.Y., USA. V-bottom polypropylene 384-well plates were purchased from Greiner Bio-One, Monroe, N.C., USA. Cell culture 384-well white opaque plates were purchased from Perkin Elmer, Waltham, Mass., USA. Cell-Titer Glo® was purchased from Promega Corporation, Madison, Wis., USA. SpectraMax M5 plate reader was purchased from Molecular Devices LLC, Sunnyvale, Calif., USA.
Z-138 suspension cells were maintained in growth medium (RPMI 1640 supplemented with 10% v/v heat inactivated fetal bovine serum and cultured at 37° C. under 5% CO2. Under assay conditions, cells were incubated in assay medium (RPMI 1640 supplemented with 10% v/v heat inactivated fetal bovine serum and 100 units/mL penicillin-streptomycin) at 37° C. under 5% CO2.
For the assessment of the effect of compounds on the proliferation of the Z-138 cell line, exponentially growing cells were plated in 384-well white opaque plates at a density of 10,000 cells/ml in a final volume of 50 μl of assay medium. A compound source plate was prepared by performing triplicate nine-point 3-fold serial dilutions in DMSO, beginning at 10 mM (final top concentration of compound in the assay was 20 μM and the DMSO was 0.2%). A 100 nL aliquot from the compound stock plate was added to its respective well in the cell plate. […] After addition of compounds, assay plates were incubated for 5 days at 37° C., 5% CO2, relative humidity >90%.
Cell viability was measured by quantitation of ATP present in the cell cultures, adding 35 μl of Cell Titer Glo® reagent to the cell plates. Luminescence was read in the SpectraMax M5 microplate reader. The concentration of compound inhibiting cell viability by 50% was determined using a 4-parametric fit of the normalized dose response curves.

[1] = test system: symmetric di-methyl arginine in Z-138 cells; experiment: Z-138 Methylation Assay (In Cell Western for symmetric di-methyl arginine and DNA content); assay type: cell-based; settings: Homo sapiens, read-out: ICW EC50
Description: Z-138 suspension cells were purchased from ATCC (American Type Culture Collection, Manassas, Va.). RPMI/Glutamax medium, penicillin-streptomycin, heat inactivated fetal bovine serum, and D-PBS were purchased from Life Technologies, Grand Island, N.Y., USA. Odyssey blocking buffer, 800CW goat anti-rabbit IgG (H+L) antibody, and Licor Odyssey infrared scanner were purchased from Licor Biosciences, Lincoln, Nebr., USA. Symmetric di-methyl arginine antibody was purchased from EMD Millipore, Billerica, Mass., USA. 16% Paraformaldehyde was purchased from Electron Microscopy Sciences, Hatfield, Pa., USA.
Z-138 suspension cells were maintained in growth medium (RPMI 1640 supplemented with 10% v/v heat inactivated fetal bovine serum and 100 units/mL penicillin-streptomycin) and cultured at 37° C. under 5% CO2.
Cell Treatment, in Cell Western (ICW) for Detection of Symmetric Di-Methyl Arginine and DNA Content.
Z-138 cells were seeded in assay medium at a concentration of 50,000 cells per mL to a 384-well cell culture plate with 50 μL per well. Compound (100 nL) from 384 well source plates was added directly to 384 well cell plate. Plates were incubated at 37° C., 5% CO2 for 96 hours. After four days of incubation, 40 μL of cells from incubated plates were added to poly-D-lysine coated 384 well culture plates (BD Biosciences 356697). Plates were incubated at room temperature for 30 minutes then incubated at 37° C., 5% CO2 for 5 hours. After the incubation, 40 μL per well of 8% paraformaldehyde in PBS (16% paraformaldahyde was diluted to 8% in PBS) was added to each plate and incubated for 30 minutes. Plates were transferred to a Biotek 405 plate washer and washed 5 times with 100 μL per well of wash buffer (1×PBS with 0.1% Triton X-100 (v/v)). Next 30 μL per well of Odyssey blocking buffer were added to each plate and incubated 1 hour at room temperature. Blocking buffer was removed and 20 μL per well of primary antibody was added (symmetric di-methyl arginine diluted 1:100 in Odyssey buffer with 0.1% Tween 20 (v/v)) and plates were incubated overnight (16 hours) at 4° C. Plates were washed 5 times with 100 μL per well of wash buffer. Next 20 μL per well of secondary antibody was added (1:200 800CW goat anti-rabbit IgG (H+L) antibody, 1:1000 DRAQ5 (Biostatus limited) in Odyssey buffer with 0.1% Tween 20 (v/v)) and incubated for 1 hour at room temperature. The plates were washed 5 times with 100 μL per well wash buffer then 1 time with 100 μL per well of water. Plates were allowed to dry at room temperature then imaged on the Licor Odyssey machine which measures integrated intensity at 700 nm and 800 nm wavelengths. Both 700 and 800 channels were scanned.
First, the ratio for each well was determined by:
Each plate included fourteen control wells of DMSO only treatment (minimum inhibition) as well as fourteen control wells for maximum inhibition treated with 3 μM of a reference compound (Background wells). The average of the ratio values for each control type was calculated and used to determine the percent inhibition for each test well in the plate. Reference compound was serially diluted three-fold in DMSO for a total of nine test concentrations, beginning at 3 μM. Percent inhibition was determined and IC50 curves were generated using triplicate wells per concentration of compound.

T1 sequence (O14744 with tags, fused parts or gaps): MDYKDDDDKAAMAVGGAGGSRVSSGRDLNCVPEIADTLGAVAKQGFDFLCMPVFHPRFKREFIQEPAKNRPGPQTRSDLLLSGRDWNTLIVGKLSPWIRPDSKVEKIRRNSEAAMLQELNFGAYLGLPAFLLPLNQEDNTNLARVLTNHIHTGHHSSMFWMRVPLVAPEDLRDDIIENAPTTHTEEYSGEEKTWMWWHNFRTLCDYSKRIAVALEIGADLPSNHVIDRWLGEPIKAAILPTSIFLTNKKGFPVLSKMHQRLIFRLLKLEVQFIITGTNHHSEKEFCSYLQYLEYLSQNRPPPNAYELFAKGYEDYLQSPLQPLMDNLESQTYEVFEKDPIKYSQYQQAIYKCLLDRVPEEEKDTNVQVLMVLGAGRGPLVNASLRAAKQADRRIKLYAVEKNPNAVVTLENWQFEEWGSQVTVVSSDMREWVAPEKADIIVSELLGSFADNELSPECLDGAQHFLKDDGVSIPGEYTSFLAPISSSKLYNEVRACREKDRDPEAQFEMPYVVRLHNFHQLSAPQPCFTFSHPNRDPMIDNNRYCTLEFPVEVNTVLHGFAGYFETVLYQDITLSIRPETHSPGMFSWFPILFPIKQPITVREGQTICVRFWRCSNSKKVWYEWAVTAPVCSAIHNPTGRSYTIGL
T1 sequence (Q9BQA1 with tags, fused parts or gaps partner limits assumed): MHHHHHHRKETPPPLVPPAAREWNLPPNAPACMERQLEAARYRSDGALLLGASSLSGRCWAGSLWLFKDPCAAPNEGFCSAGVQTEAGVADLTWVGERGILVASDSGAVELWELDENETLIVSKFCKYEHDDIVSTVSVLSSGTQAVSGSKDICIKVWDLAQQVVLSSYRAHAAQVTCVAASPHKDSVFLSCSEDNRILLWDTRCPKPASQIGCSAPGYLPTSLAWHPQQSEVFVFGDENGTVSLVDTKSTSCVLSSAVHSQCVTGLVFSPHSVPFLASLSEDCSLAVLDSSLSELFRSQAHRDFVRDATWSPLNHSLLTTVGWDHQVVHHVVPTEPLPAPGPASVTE

SMILES	IC50 (PRMT5/MEP50) [µM]	EC50 [1] [µM]	EC50 (Z-138 cells) [µM]
O=C(CC1NC(N2CCN(c3ccccc3)CC2)=NC1=O)Nc1ccc(Cl)cc1 (stereo not drawn) [Compound 1-6]	0.101 to 1	0.101 to 1	> 20
CN(C)c1cccc2c(S(=O)(=O)NCC3CCN(Cc4ccco4)CC3)cccc12 [Compound 3-3]	0.101 to 1	1 to 10	10 to 50
OC(COc1cccc(-c2ccc3ncsc3c2)c1)CN1CCc2ccccc2C1 (stereo not drawn) [Compound 1-9]	0.101 to 1	1 to 10	10 to 50
O=C(NC[C@@H](O)CN1CCc2ccccc2C1)c1cccc(NC2CCOCC2)c1 [Compound 24-9]	0.101 to 1	0.101 to 1	> 5
O=C(NC[C@H](O)CN1Cc2ccccc2C1)c1cc(NC2COC2)nc(N2CCOCC2)n1 [Compound 8-11]	< 0.1	< 0.1	1 to 10
CCOC(=O)c1ccc(NC(=O)CC2NC(N3CCN(c4ccccc4)CC3)=NC2=O)cc1 (stereo not drawn) [Compound 20-14]	0.101 to 1	1 to 10	> 20
NCc1nccn1Cc1cccc(Br)c1 [Compound 6-13]	10 to 50	> 1	> 5
CN(C)c1cccc2c(S(=O)(=O)NC3CC(=O)N(c4ccccc4Cl)C3)cccc12 (stereo not drawn) [Compound 8-4]	0.101 to 1	1 to 10	10 to 50
Cn1cnc2ccc(-c3cccc(OCC(O)CN4CCc5ccccc5C4)c3)cc21 (stereo not drawn) [Compound 23-9]	< 0.1	0.101 to 1	> 1
CN(C)c1cccc2c(S(=O)(=O)NC3CCN(Cc4ccccc4)C3)cccc12 (stereo not drawn) [Compound 1-5]	0.101 to 1	1 to 10	> 20
O=C(NC[C@H](O)CN1CCc2ccccc2C1)c1cc(NC2CN(C(=O)C3CCC3)C2)ncn1 [Compound 14-9]	< 0.1	< 0.1	< 0.1
CN1CCC(Nc2ccnc(C(=O)NC[C@H](O)CN3CCc4ccccc4C3)c2)CC1 [Compound 5-9]	< 0.1	< 0.1	> 5
O=C(NC[C@H](O)CN1Cc2ccccc2C1)c1cncc(NC2CCN(CC(F)(F)F)C2)c1 (stereo partly drawn) [Compound 9-11]	0.101 to 1	0.101 to 1	> 20
CC(=O)N1CC(Nc2cc(C(=O)NC[C@H](O)CN3Cc4ccccc4C3)ncn2)C1 [Compound 5-11]	< 0.1	0.101 to 1	1 to 10
CC(=O)N1CCC(Nc2cc(C(=O)N(C)C[C@H](O)CN3CCc4ccccc4C3)ncn2)CC1 [Compound 9-9]	< 0.1	0.101 to 1	0.101 to 1
O=C(NC[C@H](O)CN1CCc2ccccc2C1)c1cc(NC2CCN(CC(F)(F)F)CC2)ncn1 [Compound 3-9]	< 0.1	< 0.1	0.101 to 1

Now from value to molecule, other results behind:

IC50 (PRMT5/MEP50) [µM]	EC50 [1] [µM]	SMILES	EC50 (Z-138 cells) [µM]
< 0.1	< 0.1	CN(C)c1cccc2c(S(=O)(=O)N[C@H]3CC(=O)N(c4ccccc4)C3)cccc12 [Compound 3-4, (S)-5-(dimethylamino)-N-(5-oxo-1-phenylpyrrolidin-3-yl)naphthalene-1-sulfonamide]	1 to 10
0.101 to 1	0.101 to 1	O=C(NC[C@H](O)CN1Cc2ccccc2C1)c1cncc(NC2CCOCC2)c1 [Compound 7-11]	1 to 10
0.101 to 1	< 0.1	CC(=O)N1CC(Nc2cc(C(=O)N(C)C[C@H](O)CN3CCc4ccccc4C3)ncn2)C1 [Compound 8-9]	1 to 10
< 0.1	0.101 to 1	CN(C)c1cccc2c(S(=O)(=O)NC[C@@H](N)Cc3ccccc3)cccc12 [Compound 5-7, (S)—N-(2-amino-3-phenylpropyl)-5-(dimethylamino)naphthalene-1-sulfonamide]	1 to 10
0.101 to 1	0.101 to 1	CC(=O)N1CC(Nc2cc(C(=O)NCC(C)(O)CN3CCc4ccccc4C3)ncn2)C1 (stereo not drawn) [Compound 6-9]	> 5
0.101 to 1	0.101 to 1	O=C(NC[C@H](O)CN1Cc2ccccc2C1)c1cncc(NC2CCN(CC(F)(F)F)CC2)c1 [Compound 6-11]	10 to 50
0.101 to 1	0.101 to 1	O=C1CC(NS(=O)(=O)c2cccc3ccccc23)CN1c1ccccc1 (stereo not drawn) [Compound 2-4]	10 to 50
0.101 to 1	0.101 to 1	Cc1ccccc1N1CC(NS(=O)(=O)c2cccc3c(N(C)C)cccc23)CC1=O (stereo not drawn) [Compound 4-4]	10 to 50
< 0.1	< 0.1	CC(=O)N1CCC(Nc2cc(C(=O)NC(C)C(O)CN3CCc4ccccc4C3)ccn2)CC1 (stereo not drawn) [Compound 11-9]	0.101 to 1
< 0.1	< 0.1	CC(=O)N1CCC(Nc2cc(C(=O)NCC(C)(O)CN3CCc4ccccc4C3)ccn2)CC1 (stereo not drawn) [Compound 12-9]	1 to 10
